We go through one compound from US7383788B2, “Enhanced feeding and growth rates of aquatic animals fed an astaxanthin product derived from marigold extract” (DSM IP Assets B.V., priority 2002, dated 2008).

The test system of assay [1] is Penaeid shrimp (Litopenaeus vannamei). The assay can be described thus: Field trial on a commercial shrimp farm using several pigment sources to evaluate production. In kind it is in vivo. From the text: Penaeid shrimp (Litopenaeus vannamei) with an average initial weight of 0.96 gr were stocked at a density of 25.04 individuals/square meter in […]. There were three ponds for each treatment to give a total of 12 ponds. The size of the ponds differed slightly as shown in Table 3 where a summary of the yields obtained after harvesting are also presented. All ponds were fed with the same diets varying only in the type of pigment used and keeping one as a control without pigment addition. Weight of feed supplied to each pond was recorded daily and the feed conversion ratio calculated after harvesting. Culture of the shrimp was done following normal commercial procedures and doing exactly the same operations in all ponds.

Assay [2] relates to Rainbow trout. Briefly: Field trial on rainbow trout in a commercial fish farm (pigmentation and growth). The class given is in vivo. The conditions noted are these: 90 ppm in feed. As for the experimental part:
A field trial with Rainbow Trout was done to assess pigmentation and growth in a commercial fish farm. The fish were grown in concrete raceways where fish were stocked in two sections of different raceways. In one section we had the control treatment which was fed with feed containing synthetic astaxanthin at 90 ppm. […] The water temperature was constant at 16° C. throughout the test as was the flow rate at 60 1/sec. Fish were fed to satiate, feed consumed was weighed for each treatment and conversion rates calculated based on the initial and final biomass.

Molecules are shown by their SMILES.

As to `CC1=C(/C=C/C(C)=C/C=C/C(C)=C/C=C/C=C(C)/C=C/C=C(C)/C=C/C2=C(C)C(=O)[C@@H](O)CC2(C)C)C(C)(C)C[C@H](O)C1=O` [Synthetic astaxanthin, astaxanthin], in assay [1] (25 ppm pigment in feed), the “Harvest Kg/Hect” value is 1,283 Kg/Hect. In addition, the “% Survival” value in assay [1] (25 ppm pigment in feed, at harvest after 92-100 days) is given as 66.5%. For the same compound, the “Feed Conv Ratio” value in assay [1] (25 ppm pigment in feed, calculated after harvesting) is 1.62. In assay [1] (25 ppm pigment in feed, three ponds), the “Harvest Kg” value was 18,729 Kg. Further, in assay [1] (after harvesting), the “survival rate (in words)” value is listed as “low survival rate”. In addition, in assay [2], the “Average Wt gain” value is 0.188 kg and the “Average end Wt” value came out at 0.337 kg. In addition, the “Conv. Ratio” value in assay [2] (based on initial and final biomass) is reported as 1.56. This compound yielded an average weight gain in assay [2] (end of feeding trial) of 188 grams. In addition, in assay [2] (fed to satiate), the Feed consumed is given as 125.2 kg. Moreover, in assay [2] (fed to satiate, 16° C.), the “Final Biomass” value turned out to be 154.6 kg.
